Reference: patent US8202696B2, “Means for use in treating diseases correlated with or caused by non-physiological levels of microtubule-associated PP2Ac” (Max-Planck-Gessellschaft zur Forderung der Wissenschaften …, priority 2002, dated 2012)
Where no end group is shown, it is not given here.

Legend:
MID1/PP2A complex = target: T1, MID1/PP2A complex (Homo sapiens, UniProt P78318); experiment: hFused phosphorylation in cells co-expressing hFused and B-Box1, Western blot; assay type: cell-based
T1 construct: endogenous in cells
T1 sequence (P78318 1-339): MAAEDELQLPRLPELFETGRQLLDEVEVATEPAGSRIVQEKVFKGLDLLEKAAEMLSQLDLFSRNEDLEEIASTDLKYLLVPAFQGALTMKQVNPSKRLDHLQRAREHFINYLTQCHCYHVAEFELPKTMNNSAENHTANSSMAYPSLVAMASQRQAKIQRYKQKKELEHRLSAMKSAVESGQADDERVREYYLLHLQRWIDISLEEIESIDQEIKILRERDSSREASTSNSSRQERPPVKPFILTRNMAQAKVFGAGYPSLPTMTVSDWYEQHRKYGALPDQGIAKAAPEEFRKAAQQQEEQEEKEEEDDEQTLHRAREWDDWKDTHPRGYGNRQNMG
Protocol: 8×10^5 cells were transfected with hFused-V5 (aa 1-1335) in presence and absence of MYC-B-BOX1 (aa 110-167 of the MID1 protein) using Qiagen polyfect transfection reagent according to the manufacturer's instructions. Cell pellets were resuspended in magic mix (48% urea, 15 mM Tris-HCl, 8.7% glycerin, 1% SDS, 0.004% Bromphenol Blue, 143 mM β-Mercaptoethanol). After sonification, cell lysate of cells expressing hFused and hFused together with B-Box1 was separated on a 6% SDS-gel (200 μg protein loaded in each lane), blotted on PVDF-membranes and incubated with anti-V5-antibody (1:3000). Secondary HRP-antimouse-antibody was diluted 1:2000.
A dominant-negative effect of the B-Box1-peptide leading to an inhibition of […] induced ubiquitination of microtubules-associated PP2A and resulting in a enrichment of microtubules-associated PP2A was shown previously.
Cell lysate of cells expressing only hFused (con) and hFused together with the B-Box1 (+B-Box1) was separated on an SDS-Page, blotted and incubated with an anti-V5-antibody. In order to stop all kinase and phosphatases directly after cell lysis, cells were lysed in an SDS- and urea-containing buffer.

Gli3 [1] = experiment: Localization of overexpressed GFP-tagged Gli3 in HeLa cells; assay type: cell-based; conditions: GFP-tagged Gli3-overexpressing HeLa cells
Protocol: 1×10^5 HELA cells per well of a 6-well plate were transfected with Qiagen Polyfect transfection reagent according to the manufacturer's instructions. The ratio of the amount of DNA to the amount of polyfect transfection reagent was 3 μg DNA/10 μl Polyfect. Constructs used for expression in HELA were the following: GFP-GLI3 (aa 18-1549), GLI3-GFP (aa 1-1522), MYC-GLI3 (aa 18-1596), FLAG-GLI3 (aa18-1596), MYC-B-BOX1 (aa 110-167 of the MID1 protein), ALPHA4-V5 (aa 1-339). 24 h after transfection immunofluorescence was performed. GFP-constructs were treated as described in Schweiger et al., 1999. Immunofluorescence with MYC-tagged and FLAG-tagged constructs was done according to Trockenbacher et al., 2001. FLAG-tagged constructs were detected with anti-FLAG-antibody diluted 1:500, the secondary antibody FITC-antimouse was diluted 1:1000. For MYC-tagged constructs anti-MYC-antibody 1:300 and CY3-antirabbit 1:1000 were used. […]
Overexpressed Gli3 is predominantly localized in the nucleus (FIG. 10, top left).

Gli3 [2] = experiment: Localization of GFP-GLI3 in cultured U373MG cells; assay type: cell-based; conditions: 24 hours after transfection, 100 cells counted
Protocol: COS7-HELA- and U373MG-cells were transfected using PolyFect Transfection Reagent (Qiagen, cat. no. 301107) according to the manufacturer's instructions. Gli3 cDNA was cloned into pEGFP-C1 and pEGFP-N3 vectors (Clontech) respectively. 100 transfected cells per experiment (Gli3-GFP, GFP-Gli3, Gli3-GFP+myc-MID1, GFP-Gli3+myc-MID1, Gli3-GFP+myc-BBox1, GFP-Gli3+myc-BBox1) were counted and analysed for Gli3 localization. Experiments were repeated twice. […] PCMV-Tag3 vector from Stratagene was used for myc-MID1 and myc-BBox1 overexpression.

α4 = target: T2, α4 (Homo sapiens, UniProt P78318); experiment: Yeast two-hybrid interaction of MID1 constructs with α4; assay type: binding
T2 construct: expressed in transfected cells; host or cells: L40 yeast strain
T2 sequence (P78318 1-339): T1 sequence (P78318 1-339)
Protocol: Yeast two-hybrid screening. For yeast two-hybrid screening, we cloned full-length MID1 cDNA into the pBTM116 vector. We then cotransfected this with a human fetal brain cDNA Matchmaker library in the pGAD10 vector (Clontech) into the L40 yeast strain. We plated the transformants on synthetic medium lacking histidine, leucine and tryptophan (his^− leu^− trp^−) and containing 3-amino-1,2,4, triazole, and incubated the plates at 30° C. for 5 days. We assayed his-positive colonies for β-galactosidase activity with a filter assay^47. We isolated plasmid DNA from β-galactosidase-positive clones and cotransfected this again into L40 yeast with MID1-pBTM116 and controls. We selected plasmids that produced growth on selective plates only in combination with MID1-pBTM116, which were assumed to code for MID1 interactors, and sequenced them.
Activity of β-galactosidase in yeast liquid cultures. We assayed cells for β-galactosidase activity by the o-nitrophenyl-β-D-galactopyranoside (ONPG) method^47.
MID1 is a multidomain protein harboring a RING finger, two B-boxes, a coiled-coil region, a fibronectin type III domain and a B30.2 domain^3—all of which are candidate regions for specific protein-protein interactions. To clarify which domain specifically binds α4, we tested several deletion mutants of MID1 for interaction with α4 in the yeast two-hybrid system. […]

patched gene = experiment: Patched-specific semiquantitative RT-PCR of HeLa cells; assay type: cell-based; conditions: compared to mock-transfected cells
Protocol: One of the most important targets of the Gli3 transcription factor is the patched gene. In order to analyse HeLa cells for Gli3 activity after treatment with the different molecules, semiquantitative RT-PCR of cells overexpressing the B-Box1 and the α4 protein was carried out (FIG. 13). HeLa cells have previously been tested for Gli3-, Gli1 (another target of the Gli3 transcription factor) and patched-expression.

Ratio between phosphorylated and dephosphorylated hFused-form (MID1/PP2A complex; FIG. 15c, control 10.3): 3
Ratio between phosphorylated and dephosphorylated hFused-form (MID1/PP2A complex; FIG. 16c, reproduction, control 8.3): 3
Substance: B-Box1: peptide derived from the MID1 domain that is responsible for α4 binding (amino acids 108-165), expressed from plasmid (ANTMTSAEKVLCQFCDQDPAQDAVKTCVTCEVSYCDECLKATHPNKKPFTGHRLIEPI; cysteine pairing not given here; also: myc tag; UniProt O15344 108-165, looked up, fragment)
Gli3 localization (Gli3 [1]): significant retention of the active form of Gli3 in the cytosol
GFP-GLI3 localization (Gli3 [2]; listed as B-BOX1): significant change of GFP-GLI3 from nucleus to cytosol
GFP-GLI3 localization (Gli3 [2]; listed as BBox1): significant change from the nucleus to the cytosol
GFP-GLI3 localization (Gli3 [2]; listed as Bbox1): significant Bbox1-dependent change of Gli3 localization
Interaction with α4 (α4): sufficient for a strong interaction with α4
patched message (patched gene): significant reduction of the patched message
